Measured values as given in PubChem BioAssay AID1845228.

Details: pampa; 60.0 min; 50.0 µM

Structure (SMILES) | Papp [×10⁻⁶ cm/s]
O=C1c2c(O)ccc(O)c2C(=O)c2c(NCCNCCO)ccc(NCCNCCO)c21 | 19
Cc1ccc(NC(=O)c2ccc(CN3CCN(C)CC3)cc2)cc1Nc1nc(-c2cccnc2)cs1 | 100
C[C@@H]1C[C@@H](O)[C@]2(O)O[C@@H]3C[C@@]4(C=O)C(CC[C@@H]5C4CC[C@]4(C)[C@@H](C6=CC(=O)OC6)CC[C@]54O)C[C@H]3O[C@@H]2O1 (stereo partly drawn) | < 1
C/C(=C\c1csc(C)n1)[C@@H]1C[C@@H]2O[C@]2(C)CCC[C@H](C)[C@H](O)[C@@H](C)C(=O)C(C)(C)[C@@H](O)CC(=O)N1 | 1.7
CN(C)CCn1cnc2c(c(-c3ccccc3)c(-c3ccccc3)n2CCc2ccccc2)c1=N | 148
N#Cc1ccc(C(=O)N2CCC3(CC2)N=C(N)c2c(F)ccc(F)c2N3)cn1 | 4
O=C(O)C1=C(CSc2nnnn2CS(=O)(=O)O)CS[C@@H]2[C@H](NC(=O)[C@H](O)c3ccccc3)C(=O)N12 | 12
C/C(=C(\CCOC(=O)C(C)C)SS/C(CCOC(=O)C(C)C)=C(/C)N(C=O)Cc1cnc(C)nc1N)N(C=O)Cc1cnc(C)nc1N | 3
NC(=O)N1CCC(CC(=O)N2CCC([C@H]3c4ncc(Br)cc4CCc4cc(Cl)cc(Br)c43)CC2)CC1 | 73.5
N[C@@H](COC(c1cccc(F)c1)c1ccccc1OCc1ccccc1)C(=O)O (stereo partly drawn) | < 1
Cn1nnnc1Sc1ncnc2scc(-c3ccc(C#N)cc3)c12 | 63
COc1cc(/C=C/C(=O)NCCn2c(C(F)(F)F)cc3ccccc32)cc(OC)c1OC | > 300
N=c1c2c(-c3ccccc3)c(-c3ccccc3)n(Cc3ccccc3)c2ncn1[C@H](CO)Cc1ccccc1 | < 1
COc1cc2nc(N3CCC(N4CCCCC4)CC3)nc(NC3CCCCCC3)c2cc1OC | 116
N=c1c2c(-c3ccccc3)cn(Cc3ccccc3)c2ncn1C(CO)(CO)CO | > 300
COc1cc([C@@H]2c3cc4c(cc3[C@@H](O[C@@H]3O[C@@H]5CO[C@@H](C)O[C@@H]5[C@H](O)[C@@H]3O)[C@H]3COC(=O)[C@H]23)OCO4)cc(OC)c1O | 3
CC[n+]1c(-c2ccccc2)c2cc(N)ccc2c2ccc(N)cc21 | 2
Nc1c2ccccc2nc2ccccc12 | 36
CO[C@@]1(NC(=O)C2SC(=C(C(N)=O)C(=O)O)S2)C(=O)N2C(C(=O)O)=C(CSc3nnnn3C)CS[C@@H]21 (stereo partly drawn) | < 1
COc1ccc(Cn2c(-c3ccccc3)c(-c3ccccc3)c3c(=N)n(CCO)cnc32)cc1 | 279
N=c1c2c(-c3ccccc3)cn(Cc3ccccc3)c2ncn1CCCCCO | 89
N=c1c2c(-c3ccccc3)c(-c3ccccc3)n(CCc3ccccc3)c2ncn1CCCO | 66
CC1=C(/C=C/C(C)=C/C=C/C(C)=C/C(=O)O)C(C)(C)CCC1 | < 1
CC(OC(=O)NCC1(CC(=O)O)CCCCC1)OC(=O)C(C)C (stereo not drawn) | 143

Structure (SMILES) | Papp [×10⁻⁶ cm/s]
OCCOCCN1CCN(C(c2ccccc2)c2ccc(Cl)cc2)CC1 (stereo not drawn) | 114
CCCCN(CCCC)C(=O)CN1C[C@H](c2ccc3c(c2)OCO3)[C@@H](C(=O)O)[C@@H]1c1ccc(OC)cc1 | 9
CO[C@H]1/C=C\C=C(\C)C(=O)NC2=CC(=O)C(NCCN(C)C)=C(C[C@@H](C)C[C@H](OC)[C@H](O)[C@@H](C)/C=C(/C)[C@@H]1OC(N)=O)C2=O | 11.9
CC(=O)Nc1cccc(-n2c(=O)n(C3CC3)c(=O)c3c(Nc4ccc(I)cc4F)n(C)c(=O)c(C)c32)c1 | 259
CC[C@@]1(O)C(=O)OCc2c1cc1n(c2=O)Cc2c-1nc1ccccc1c2/C=N/OC(C)(C)C | 81
COc1cc2c(Nc3ccc(Cl)c(Cl)c3F)ncnc2cc1OCC1C[C@@H]2CN(C)C[C@@H]2C1 (stereo partly drawn) | > 300
O=C(NO)c1cnc(NC2(c3ccccc3)CC2)nc1 | 2
O=C(NCc1ccc(OC(F)(F)F)cc1)C1c2ccccc2C(=O)N1C1CCOCC1 (stereo not drawn) | 42
CCOc1ccc(C2C(C(=O)Nc3ccccc3OC)=C(C)Nc3c(C(=O)Nc4cccc(C)c4)cnn32)cc1 (stereo not drawn) | 45
CCOc1ccc(CCNC(=O)c2cc3ccccc3n2Cc2cccc(C)n2)cc1OCC | 271
N#Cc1c[nH]c2c(C(=O)N3CCN(CCc4ccc(F)cc4)CC3)cccc12 | 121
O=C(NC1CCC(O)CC1)c1ccc(-c2ncc3cnc(-c4cccc(F)c4)cn23)cc1 (stereo not drawn) | 59
CCOC(=N)c1nc2ccc3ncnc(Nc4cc(F)c(F)cc4Cl)c3c2s1 | 1.2
Nc1nc(/C(=C/CC(=O)O)C(=O)N[C@@H]2C(=O)N3C(C(=O)O)=CCS[C@H]23)cs1 | 18
O=C(NCC1(N2CCN(c3ccccc3)CC2)CCOCC1)c1cccnc1Sc1ccccc1 | 207
Cn1nnnc1Sc1ncnc2scc(-c3cccc(C#N)c3)c12 | 76
Oc1ccc2nc(CN3CCC(Cc4ccccc4F)CC3)[nH]c2c1 | 107
FC(F)(F)c1ccccc1-c1cc(C(F)(F)F)c2nc(C3=NOC4(CCCCC4)C3)[nH]c2c1 | 8
Cc1[nH]c2ccccc2c1CCNCc1ccc(C=CC(=O)NO)cc1 | < 1
COc1ccc(Cn2c(-c3ccccc3)c(-c3ccccc3)c3c(=N)n(N4CCOCC4)cnc32)cc1 | 160
Cc1cccc(-c2csc3ncnc(Sc4nnnn4C)c23)c1 | 225
C=Cc1c(C)c2cc3nc(c(CC(=O)N[C@@H](CC(=O)O)C(=O)O)c4nc(cc5[nH]c(cc1[nH]2)c(C)c5CC)C(C)=C4C(=O)O)[C@@H](CCC(=O)O)[C@@H]3C | < 1
CO/N=C(/C(=O)N[C@@H]1C(=O)N2C(C(=O)O)=CCS[C@H]12)c1csc(N)n1 | < 1
COCC1=C(C(=O)O)N2C(=O)[C@@H](NC(=O)/C(=N\OC)c3csc(N)n3)[C@H]2SC1 | < 1

Structure (SMILES) | Papp [×10⁻⁶ cm/s]
CC(=O)N1CCN(C(=O)c2ccc(-c3ncc4cnc(-c5cccc(F)c5)cn34)cc2)CC1 | < 1
Cc1cc(CNC(=O)c2ccc3c(c2)n(CC2CC2)c(=O)n3C2CCCCC2)on1 | > 300
NCCCNCCCCNC(=O)C(O)NC(=O)CCCCCCN=C(N)N (stereo not drawn) | 38
O=C1NCN(c2ccccc2)C12CCN(CCCC(c1ccc(F)cc1)c1ccc(F)cc1)CC2 | 42
Cc1oc(=O)oc1COC(=O)N1CC[C@@H](N2CC/C(=C\C3=C(C(=O)O)N4C(=O)[C@@H](NC(=O)/C(=N/O)c5nsc(N)n5)[C@H]4SC3)C2=O)C1 | 3
CC(Cc1ccc2c(c1)OCO2)NCC(O)c1ccc(O)c(O)c1 (stereo not drawn) | 6
C=CC1=C(C(=O)O)N2C(=O)[C@@H](NC(=O)/C(=N\OCC(=O)O)c3csc(N)n3)[C@H]2SC1 | 2
COc1ccc(-c2c(Cl)ncn2-c2ccc(S(N)(=O)=O)cc2)cc1F | 78
CC(=O)OC(C)OC(=O)C(C)c1ccc(-c2ccccc2)c(F)c1 (stereo not drawn) | > 300
Cn1nnnc1Sc1ncnc2scc(-c3cccc4c3sc3ccccc34)c12 | 12
COc1c(C)c2c(c(O)c1C/C=C(\C)CCC(=O)O)C(=O)OC2 | < 1
Cc1ccc(-c2c(C(=O)CF)n(CCCO)c3ncnc(N)c23)cc1 | 18
Cc1nc2c([nH]1)CCN(C(=O)c1ccc(NC(=O)c3ccccc3-c3ccccc3)cc1)c1ccccc1-2 | 98
C[C@@]12CCCCC[C@@H](Cc3ccc(O)cc31)[C@H]2N | 74
COc1cc(C(C)C)c(Oc2cnc(NC(CO)CO)nc2N)cc1I | 103
CC(C)C[C@H](CO)Nc1nc(S[C@@H](C)c2ccccc2)nc2nc(N)sc12 | 244
CCN(CC)CCNc1ccc2ncn3c4ccc(O)cc4c(=O)c1c23 | 17
CC(C)(C)C(=O)OCOC(=O)C1N2C(=O)CC2S(=O)(=O)C1(C)C (stereo not drawn) | 37
CNC(=O)c1cc(Oc2ccc(NC(=O)Nc3cc(C(C)(C)C)nn3-c3ccc4ncccc4c3)c(F)c2)ccn1 | 210
COCCNCCCn1c(C(=O)CF)c(-c2ccc(C)cc2)c2c(N)ncnc21 | 20
Cc1ccc(-c2c(C(=O)CCl)n(CCCO)c3ncnc(N)c23)cc1 | 76
CCOc1cc2ncc(C#N)c(Nc3ccc(F)c(Cl)c3)c2cc1NC(=O)C=CCN(C)C | 256
NC(=O)OC[C@@H]1[C@H](NC(=O)/C(=N\OCC(=O)O)c2csc(N)n2)C(=O)N1S(=O)(=O)O | < 1
CC1(C)S[C@@H]2[C@H](NC(=O)C3(N)CCCCC3)C(=O)N2[C@H]1C(=O)O | 54

Structure (SMILES) | Papp [×10⁻⁶ cm/s]
COC1CC(=C(c2cccs2)c2cccs2)C[N+](C)(C)C1 (stereo not drawn) | < 1
CCOC(=O)c1ccc(NC(=O)c2sc3nc4c(cc3c2N)N2CCC4CC2)cc1 | 255
CN1CCCC(=C(c2cccs2)c2cccs2)C1 | < 1
N=c1c2c(-c3ccccc3)cn(Cc3ccccc3)c2ncn1[C@@H]1CCCC[C@H]1N | 101
CCNC1(C(N)=O)CN(c2nc(C)nc3c(-c4ccc(Cl)cc4)c(-c4ccccc4Cl)nn23)C1 | 8.69
O=C(O)[C@H]1O[C@@H](Oc2cc3oc(-c4ccc(O)cc4)cc(=O)c3c(O)c2O)[C@H](O)[C@@H](O)[C@@H]1O | < 1
COc1ccc(N(C)c2nc(C)nc3ccccc23)cc1 | 220
CCO[C@@H]1OC(=O)C[C@@H]1NC(=O)[C@@H]1CCCN2C(=O)CC[C@H](NC(=O)c3nccc4ccccc34)C(=O)N12 | < 1
COC(=O)C[C@@H](C(=O)OC)n1cnc2c(c(-c3ccccc3)cn2Cc2ccccc2)c1=N | 26
COC(Cn1cnc2c(c(-c3ccccc3)c(-c3ccccc3)n2Cc2ccccc2)c1=N)OC | 189
CCCN(CCC)C1CCc2ccc(O)cc2C1 (stereo not drawn) | 26
Cc1onc(-c2c(Cl)cccc2Cl)c1CC(=O)NCc1ccc(OCC(F)(F)F)nc1 | 204
Cc1cccc(-n2nnnc2S(C)(=O)=O)c1 | 28.3
CN(C)C(=O)NC1CCC(CCN2CCN(c3cccc(Cl)c3Cl)CC2)CC1 (stereo not drawn) | 100
N=c1c2c(-c3ccccc3)c(-c3ccccc3)n(Cc3ccccc3)c2ncn1C1CCN(Cc2ccccc2)CC1 | 233
CN(C)CC1CCOC1(c1ccccc1)c1ccccc1 (stereo not drawn) | 47
C=CC1=C(C(=O)O)N2C(=O)[C@@H](NC(=O)/C(=N\O)c3csc(N)n3)[C@H]2SC1 | < 1
C[C@H]([C@@H](O)c1ccccc1)n1cnc2c(c(-c3ccccc3)c(-c3ccccc3)n2Cc2ccccc2)c1=N | 3
COc1ccc(CCNC(=O)CCc2c(C)c3cc4c(C)coc4cc3oc2=O)cc1 | 279
CC/C=C(\C(=O)N[C@@H]1C(=O)N2C(C(=O)OCOC(=O)C(C)(C)C)=C(COC(N)=O)CS[C@H]12)c1csc(N)n1 | < 1
CC1(C)CC(=O)c2c(C(F)(F)F)nn(-c3ccc(C(N)=O)c(NC4CCC(O)CC4)c3)c2C1 (stereo not drawn) | 21.5
